# US20130195886A1, “Methods for Fructanase and Fructokinase Inhibition” (The Regents of the University of Colorado, A Body Corporate, priority 2011, published 2013)
# Experiments:
# [1] = target: T1, KHKC (Homo sapiens, UniProt P50053); assay: KHKC % inhibition of virtual-screen hits; conditions: for KHKC % Inhibition (10 UM): 10 uM compound; for inhibition at 10 µM: read-out: KHKC % Inhibition (10 µM)
# T1 sequence (P50053 1-298): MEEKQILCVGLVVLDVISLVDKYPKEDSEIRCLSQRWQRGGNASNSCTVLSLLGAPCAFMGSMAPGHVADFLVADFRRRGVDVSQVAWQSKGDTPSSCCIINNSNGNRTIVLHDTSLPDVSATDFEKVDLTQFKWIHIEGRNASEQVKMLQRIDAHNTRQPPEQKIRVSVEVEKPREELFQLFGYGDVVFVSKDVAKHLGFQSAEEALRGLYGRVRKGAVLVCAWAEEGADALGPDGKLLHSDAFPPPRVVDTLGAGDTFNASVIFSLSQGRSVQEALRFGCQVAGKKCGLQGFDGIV
# [2] = target: T2, KHKA (Homo sapiens, UniProt P50053); assay: KHKA % inhibition of virtual-screen hits; conditions: for inhibition at 10 µM: read-out: KHKA % Inhibition (10 µM)
# T2 sequence (P50053 1-298 isoform P50053-2): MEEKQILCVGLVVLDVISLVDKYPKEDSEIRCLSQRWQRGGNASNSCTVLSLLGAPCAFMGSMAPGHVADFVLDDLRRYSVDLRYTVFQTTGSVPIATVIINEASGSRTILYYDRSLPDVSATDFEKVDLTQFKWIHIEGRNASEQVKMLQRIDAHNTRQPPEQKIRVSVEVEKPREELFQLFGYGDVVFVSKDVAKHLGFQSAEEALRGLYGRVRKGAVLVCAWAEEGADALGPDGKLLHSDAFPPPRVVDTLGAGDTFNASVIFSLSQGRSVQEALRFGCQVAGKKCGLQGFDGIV
# [3] = test system: allergy-susceptible mice (lacking the toll-like receptor 4); assay: Experiment 1: peanut food allergy sensitisation and challenge; type: in vivo; conditions: fructose 30% in water added to peanuts plus cholera toxin
# [4] = test system: mice; type: in vivo; conditions: fructose (30%) vs no fructose, p<0.02 Mann Whitney
# [5] = test system: human intestinal epithelial cells (CaCo-2); assay: fructose exposure of intestinal epithelial cells, polarity and tight junction expression; type: cell-based
# [6] = test system: wild type (WT) mice; assay: fructose feeding, duodenum quantitative real time PCR; type: in vivo; conditions: 15% fructose water 3 weeks, actin control
# Experimental: In the first set of studies, three-month-old male wild type (WT) mice or fructokinase A/C knockout mice (KHK-A/C KO) (obtained from David Bonthron, Leeds, UK)(72) were administered fructose with normal chow for 3 weeks. […] Due to the different preference for fructose water between WT mice and KHK-A/C KO mice, mice were given 15% or 30% of fructose water, respectively. Both WT mice and KHK-A/C KO mice drank the same amount of fructose (FIG. 4A). For each group, the duodenum was removed after 20 hours of fasting of normal chow and the lining scraped and RNA extracted. Quantitative real time PCR was performed for fructokinase C (KHK-C, FIG. 4B), and tight junction genes occludin (FIG. 4C) and ZO-1 (FIG. 4D) using actin as an internal control.
structure (smiles),measurement,setting,value
CSc1nn(-c2ccccc2)cc1/C(N)=N/OC(=O)Nc1ccc(OC(F)(F)F)cc1 [Cpd 1],KHKC % Inhibition (10 UM),[1],25.6%
same,inhibition at 10 µM,[1],25.6%
same,KHKA % Inhibition (10 UM),[2]; 10 uM compound,7.0%
same,inhibition at 10 µM,[2],7%
CSc1nn(-c2ccccc2)c(N)c1C#N [Cpd 2],KHKC % Inhibition (100 uM),[1]; 100 uM compound,16.8%
same,inhibition at 10 µM,[1],7.8%
same,inhibition at 100 µM,[1]; read-out: KHKC % Inhibition (100 uM),16.8%
same,KHKA % Inhibition (100 uM),[2]; 100 uM compound,29.4%
same,inhibition at 10 µM,[2],5.7%
same,inhibition at 100 µM,[2]; read-out: KHKA % Inhibition (100 uM),29.4%
CSc1nn(-c2ccccc2)cc1-c1nc(-c2ccccc2)cs1 [Cpd 3],KHKC % Inhibition (10 UM),[1],19.9%
same,inhibition at 10 µM,[1],19.9%
O=C(CO)[C@@H](O)[C@H](O)[C@H](O)CO [fructose],"fall in temperature, group 3 compared to group 1",[3],greater fall in temperature
same,"symptoms, group 3 compared to group 1",[3],numerically worse symptoms
same,peanut IgE levels,[4],higher
same,expression of genes involved in the maintenance of cell polarity,[5]; 5 mM fructose,markedly decreased
same,expression of transmembrane (claudin-4) and scaffolding (ZO-1 and occluding) proteins at the tight junctions,[5]; fructose exposure,substantially down-regulated
same,localisation of polarity/tight junction proteins (confocal analysis),[5]; fructose exposure,translocates them intracellularly from the basolateral membrane domain
same,expression of e-cadherin,[5]; fructose for 96 hours,dramatically down-regulated
same,KHK mRNA expression,[6],upregulation
same,ZO-1 mRNA,[6],significant decrease
same,occludin mRNA,[6],significant decrease
